{"source": "patent US10047083B2", "about": "“Dihydropyrimidinoisoquinolinones and pharmaceutical compositions thereof for the treatment of inflammatory disorders” (GALAPAGOS NV, priority 2011, dated 2018)", "key": {"[1]": {"tested_on": "RAW264.7 murine macrophage-like cells", "conditions": "RAW264.7 cells stimulated with LPS; cited from earlier work"}, "human neutrophils [2]": {"tested_on": "human neutrophils", "assay": "Human neutrophil migration assay (embelin-induced)", "format": "cell-based"}, "GPR84 [3]": {"target": "T1, GPR84 (Homo sapiens, UniProt Q9NQS5)", "T1 construct": "expressed in transfected cells; membranes used", "T1 sequence (Q9NQS5 whole entry)": "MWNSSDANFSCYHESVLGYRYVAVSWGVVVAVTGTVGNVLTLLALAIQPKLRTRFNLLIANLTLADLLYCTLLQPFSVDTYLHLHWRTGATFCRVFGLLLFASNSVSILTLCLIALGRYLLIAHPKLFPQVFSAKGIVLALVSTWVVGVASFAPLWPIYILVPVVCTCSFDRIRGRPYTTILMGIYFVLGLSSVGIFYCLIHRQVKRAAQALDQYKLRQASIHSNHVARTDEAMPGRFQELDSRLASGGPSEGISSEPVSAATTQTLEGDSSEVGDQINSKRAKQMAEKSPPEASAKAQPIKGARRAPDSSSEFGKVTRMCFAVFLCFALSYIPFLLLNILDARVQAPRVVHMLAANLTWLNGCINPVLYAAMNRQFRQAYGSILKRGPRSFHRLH", "conditions": "Wang et al. (2006); WO 2007/027661A2; cited from earlier work"}, "GPR84 [4]": {"target": "T1, GPR84", "assay": "GTPγS binding assay (GPR84)", "format": "biochemical", "conditions": "membranes from stable cell line over expressing GPR84; 3,3′ di indolylmethane at EC80", "summary_of_the_method": "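Membranes (20 μg/well) from a stable GPR84-overexpressing line, pre-incubated with 0.1 μM GDP for 15 min at 4° C, mixed with 0.1 nM [35S]GTPγS and WGA SpA beads in 20 mM HEPES pH 7.4, 5 mM MgCl2, 250 mM NaCl, 0.05% BSA, 75 ug/mL saponin; 90 min at room temperature, then scintillation counting.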"}, "human neutrophils [5]": {"tested_on": "human neutrophils", "assay": "Human neutrophil migration assay (embelin-induced)", "format": "cell-based", "conditions": "neutrophils from human buffy coat, 30 min compound pre-incubation, migration towards embelin at EC80 for 1 h, ATPlite readout, read-out: human neutrophil migration inhibition (Neutrophils)"}}, "data": [{"smiles": "CCCCCCCCCCCC(=O)O", "note": "[lauric acid]", "values": [{"measurement": "secretion of interleukin-12 p40 subunit (IL-12 p40)", "setting": "[1]", "value": "dose dependently increased"}]}, {"smiles": "CCCCCCCCCCC(=O)O", "note": "[undecanoic acid]", "values": [{"measurement": "secretion of interleukin-12 p40 subunit (IL-12 p40)", "setting": "[1]", "value": "dose dependently increased"}]}, {"smiles": "CCCCCCCCCC(=O)O", "note": "[capric acid]", "values": [{"measurement": "secretion of interleukin-12 p40 subunit (IL-12 p40)", "setting": "[1]", "value": "dose dependently increased"}]}, {"smiles": "CCCCCCCCCC(=O)[O-].[Na+]", "note": "[sodiumdecanoate]", "values": [{"measurement": "induction of neutrophil chemotaxis by GPR84 agonists", "setting": "human neutrophils [2]", "value": "induce neutrophil chemo taxis"}]}, {"smiles": "c1ccc2c(Cc3c[nH]c4ccccc34)c[nH]c2c1", "note": "[3,3′ di indolylmethane]", "values": [{"measurement": "induction of neutrophil chemotaxis by GPR84 agonists", "setting": "human neutrophils [2]", "value": "induce neutrophil chemo taxis"}]}, {"smiles": "c1ccc2c(Cc3c[nH]c4ccccc34)c[nH]c2c1", "note": "[3,3′ di-indolylmethane]", "values": [{"measurement": "GPR84 agonist activity", "setting": "GPR84 [3]", "value": "some GPR84 agonist activity"}]}, {"smiles": "CCOc1ncccc1-c1ccc2c(c1)CCn1c-2cc(OCC2COCCO2)nc1=O", "note": "(stereo not drawn) [Compound 69, 2-([1,4]dioxan-2-ylmethoxy)-9-(2-ethoxy-pyridin-3-yl)-6,7-dihydro-pyrimido[6,1-a]isoquinolin-4-one]", "values": [{"measurement": "IC50", "setting": "GPR84 [4]", "value": "0.01 to 100", "unit": "nM"}, {"measurement": "IC50", "setting": "human neutrophils [5]", "value": "0.01 to 100", "unit": "nM"}]}, {"smiles": "COc1ncccc1-c1ccc2c(c1)CCn1c-2cc(OCC2COCCO2)nc1=O", "note": "(stereo not drawn) [Compound 56, 2-([1,4]dioxan-2-ylmethoxy)-9-(2-methoxy-pyridin-3-yl)-6,7-dihydro-pyrimido[6,1-a]isoquinolin-4-one]", "values": [{"measurement": "IC50", "setting": "GPR84 [4]", "value": "101 to 500", "unit": "nM"}, {"measurement": "IC50", "setting": "human neutrophils [5]", "value": "101 to 500", "unit": "nM"}]}, {"smiles": "CC(C)(C)OCc1ccc2c(c1)CCn1c-2cc(OCC2COCCO2)nc1=O", "note": "(stereo not drawn) [Compound 72, 9-tert-butoxymethyl-2-([1,4]dioxan-2-ylmethoxy)-6,7-dihydro-pyrimido[6,1-a]isoquinolin-4-one]", "values": [{"measurement": "IC50", "setting": "GPR84 [4]", "value": "0.01 to 100", "unit": "nM"}, {"measurement": "IC50", "setting": "human neutrophils [5]", "value": "0.01 to 100", "unit": "nM"}]}]}
